From PubChem BioAssay (NCI)
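Growth conditions: 96-well plates. Treatment: test compound, 48 hours, 5 concentrations. Analysis: linear interpolation between bracketing concentrations; unreached endpoints set to highest concentration. TGI: concentration producing complete growth inhibition.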

Legend:
Experiment in all cases: growth of human tumour cells (NCI), 48 h
OVCAR-4 ovarian = test system: OVCAR-4 ovarian
SF-539 CNS = test system: SF-539 CNS
MCF7 breast = test system: MCF7 breast
OVCAR-8 ovarian = test system: OVCAR-8 ovarian
KM12 colon = test system: KM12 colon
NCI-H23 lung = test system: NCI-H23 lung
SK-MEL-28 melanoma = test system: SK-MEL-28 melanoma
UO-31 renal = test system: UO-31 renal
COLO 205 colon = test system: COLO 205 colon
LOX IMVI melanoma = test system: LOX IMVI melanoma
SNB-75 CNS = test system: SNB-75 CNS
UACC-257 melanoma = test system: UACC-257 melanoma
MALME-3M melanoma = test system: MALME-3M melanoma
PC-3 prostate = test system: PC-3 prostate
RXF 393 renal = test system: RXF 393 renal
HCT-116 colon = test system: HCT-116 colon
NCI-H226 lung = test system: NCI-H226 lung
OVCAR-3 ovarian = test system: OVCAR-3 ovarian
SK-MEL-2 melanoma = test system: SK-MEL-2 melanoma
HOP-62 NSCLC = test system: HOP-62 NSCLC
DU-145 prostate = test system: DU-145 prostate
SK-MEL-5 melanoma = test system: SK-MEL-5 melanoma
SR leukemia = test system: SR leukemia
HCT-15 colon = test system: HCT-15 colon
SF-268 CNS = test system: SF-268 CNS
IGROV1 ovarian = test system: IGROV1 ovarian
MOLT-4 leukemia = test system: MOLT-4 leukemia
SNB-19 CNS = test system: SNB-19 CNS
M14 melanoma = test system: M14 melanoma
HT29 colon = test system: HT29 colon
SF-295 CNS = test system: SF-295 CNS
OVCAR-5 ovarian = test system: OVCAR-5 ovarian
NCI-H522 lung = test system: NCI-H522 lung
SK-OV-3 ovarian = test system: SK-OV-3 ovarian
UACC-62 melanoma = test system: UACC-62 melanoma
ACHN renal = test system: ACHN renal
NCI-H460 lung = test system: NCI-H460 lung
TK-10 renal = test system: TK-10 renal
HCC-2998 colon = test system: HCC-2998 colon
SN12C renal = test system: SN12C renal
CAKI-1 renal = test system: CAKI-1 renal
MDA-MB-435 = test system: MDA-MB-435
A549 NSCLC = test system: A549 NSCLC
NCI/ADR-RES ovarian = test system: NCI/ADR-RES ovarian
MDA-N = test system: MDA-N
BT-549 breast = test system: BT-549 breast
U251 CNS = test system: U251 CNS
K-562 leukemia = test system: K-562 leukemia
EKVX NSCLC = test system: EKVX NSCLC
786-0 renal = test system: 786-0 renal
HS 578T breast = test system: HS 578T breast
CCRF-CEM leukemia = test system: CCRF-CEM leukemia
SW-620 colon = test system: SW-620 colon
T-47D breast = test system: T-47D breast
HOP-92 NSCLC = test system: HOP-92 NSCLC
RPMI-8226 leukemia = test system: RPMI-8226 leukemia
HL-60(TB) leukemia = test system: HL-60(TB) leukemia
A498 renal = test system: A498 renal

Structure (SMILES): CC1=C(C(=O)OCCc2ccc([N+](=O)[O-])cc2)C(c2cccc([N+](=O)[O-])c2)C(C(=O)OC(C)C)=C(C)N1 (stereo not drawn)
- TGI (OVCAR-4 ovarian): > 100 µM
- TGI (SF-539 CNS): > 100 µM
- TGI (MCF7 breast): > 100 µM
- TGI (OVCAR-8 ovarian): > 100 µM
- TGI (KM12 colon): > 100 µM
- TGI (NCI-H23 lung): > 100 µM
- TGI (SK-MEL-28 melanoma): > 100 µM
- TGI (UO-31 renal): > 100 µM
- TGI (COLO 205 colon): > 100 µM
- TGI (LOX IMVI melanoma): > 100 µM
- TGI (SNB-75 CNS): 76.7 µM
- TGI (UACC-257 melanoma): > 100 µM
- TGI (MALME-3M melanoma): > 100 µM
- TGI (PC-3 prostate): > 100 µM
- TGI (RXF 393 renal): > 100 µM
- TGI (HCT-116 colon): > 100 µM
- TGI (NCI-H226 lung): > 100 µM
- TGI (OVCAR-3 ovarian): > 100 µM
- TGI (SK-MEL-2 melanoma): > 100 µM
- TGI (HOP-62 NSCLC): > 100 µM
- TGI (DU-145 prostate): > 100 µM
- TGI (SK-MEL-5 melanoma): 7.25 µM
- TGI (SR leukemia): > 100 µM
- TGI (HCT-15 colon): > 100 µM
- TGI (SF-268 CNS): > 100 µM
- TGI (IGROV1 ovarian): > 100 µM
- TGI (MOLT-4 leukemia): > 100 µM
- TGI (SNB-19 CNS): > 100 µM
- TGI (M14 melanoma): > 100 µM
- TGI (HT29 colon): > 100 µM
- TGI (SF-295 CNS): > 100 µM
- TGI (OVCAR-5 ovarian): > 100 µM
- TGI (NCI-H522 lung): 7.71 µM
- TGI (SK-OV-3 ovarian): > 100 µM
- TGI (UACC-62 melanoma): > 100 µM
- TGI (ACHN renal): > 100 µM
- TGI (NCI-H460 lung): > 100 µM
- TGI (TK-10 renal): > 100 µM
- TGI (HCC-2998 colon): > 100 µM
- TGI (SN12C renal): > 100 µM
- TGI (CAKI-1 renal): > 100 µM
- TGI (MDA-MB-435): > 100 µM
- TGI (A549 NSCLC): > 100 µM
- TGI (NCI/ADR-RES ovarian): > 100 µM
- TGI (MDA-N): > 100 µM
- TGI (BT-549 breast): > 100 µM
- TGI (U251 CNS): > 100 µM
- TGI (K-562 leukemia): > 100 µM
- TGI (EKVX NSCLC): > 100 µM
- TGI (786-0 renal): > 100 µM
- TGI (HS 578T breast): > 100 µM
- TGI (CCRF-CEM leukemia): > 100 µM
- TGI (SW-620 colon): > 100 µM
- TGI (T-47D breast): > 100 µM

Structure (SMILES): O=C1CC(Cl)c2c1csc2Br (stereo not drawn)
- TGI (OVCAR-4 ovarian): 63.6 µM
- TGI (SF-539 CNS): 6.46 µM
- TGI (MCF7 breast): 19.6 µM
- TGI (OVCAR-8 ovarian): 29.8 µM
- TGI (KM12 colon): 28.5 µM
- TGI (NCI-H23 lung): 28.9 µM
- TGI (SK-MEL-28 melanoma): 32.1 µM
- TGI (UO-31 renal): 23.8 µM
- TGI (COLO 205 colon): 28.5 µM
- TGI (LOX IMVI melanoma): 30.5 µM
- TGI (SNB-75 CNS): 35.4 µM
- TGI (UACC-257 melanoma): 32.1 µM
- TGI (HOP-92 NSCLC): 41.8 µM
- TGI (MALME-3M melanoma): 30.1 µM
- TGI (PC-3 prostate): 25.4 µM
- TGI (RXF 393 renal): 34.7 µM
- TGI (RPMI-8226 leukemia): 3.25 µM
- TGI (HCT-116 colon): 33.1 µM
- TGI (NCI-H226 lung): 76.9 µM
- TGI (OVCAR-3 ovarian): 39.5 µM
- TGI (SK-MEL-2 melanoma): 29.8 µM
- TGI (HOP-62 NSCLC): 28.7 µM
- TGI (DU-145 prostate): > 100 µM
- TGI (SK-MEL-5 melanoma): 30.6 µM
- TGI (SR leukemia): 22.3 µM
- TGI (HCT-15 colon): 25.8 µM
- TGI (SF-268 CNS): 31.4 µM
- TGI (IGROV1 ovarian): 30.8 µM
- TGI (HL-60(TB) leukemia): 52.4 µM
- TGI (MOLT-4 leukemia): 22.2 µM
- TGI (A498 renal): 53.8 µM
- TGI (SNB-19 CNS): 32.9 µM
- TGI (M14 melanoma): 27.3 µM
- TGI (HT29 colon): 43.9 µM
- TGI (SF-295 CNS): 50.2 µM
- TGI (OVCAR-5 ovarian): 33.5 µM
- TGI (NCI-H522 lung): 11.3 µM
- TGI (SK-OV-3 ovarian): 32.6 µM
- TGI (UACC-62 melanoma): 29.5 µM
- TGI (ACHN renal): 29 µM
- TGI (NCI-H460 lung): 42.5 µM
- TGI (TK-10 renal): 29.5 µM
- TGI (HCC-2998 colon): 31.2 µM
- TGI (SN12C renal): 35.7 µM
- TGI (CAKI-1 renal): 17.7 µM
- TGI (MDA-MB-435): 29.1 µM
- TGI (A549 NSCLC): 41.4 µM
- TGI (NCI/ADR-RES ovarian): 47 µM
- TGI (MDA-N): 42.2 µM
- TGI (BT-549 breast): 34 µM
- TGI (U251 CNS): 30.4 µM
- TGI (K-562 leukemia): 47 µM
- TGI (EKVX NSCLC): 43.2 µM
- TGI (786-0 renal): 25.9 µM
- TGI (HS 578T breast): 47.5 µM
- TGI (CCRF-CEM leukemia): 7.78 µM
- TGI (SW-620 colon): 12.6 µM
- TGI (T-47D breast): 70.1 µM

Structure (SMILES): COc1cc(S(=O)(=O)Nc2ccc(-c3csc(N4C(=O)C(C)SC4c4cccc(Oc5ccccc5)c4)n3)cc2)ccc1Cl (stereo not drawn)
- TGI (SF-539 CNS): > 100 µM
- TGI (MCF7 breast): 72.2 µM
- TGI (OVCAR-8 ovarian): > 100 µM
- TGI (KM12 colon): > 100 µM
- TGI (NCI-H23 lung): > 100 µM
- TGI (SK-MEL-28 melanoma): > 100 µM
- TGI (UO-31 renal): > 100 µM
- TGI (COLO 205 colon): > 100 µM
- TGI (LOX IMVI melanoma): > 100 µM
- TGI (SNB-75 CNS): > 100 µM
- TGI (HOP-92 NSCLC): > 100 µM
- TGI (MALME-3M melanoma): > 100 µM
- TGI (PC-3 prostate): > 100 µM
- TGI (RXF 393 renal): 88.2 µM
- TGI (RPMI-8226 leukemia): > 100 µM
- TGI (HCT-116 colon): > 100 µM
- TGI (NCI-H226 lung): > 100 µM
- TGI (OVCAR-3 ovarian): > 100 µM
- TGI (SK-MEL-2 melanoma): > 100 µM
- TGI (HOP-62 NSCLC): > 100 µM
- TGI (DU-145 prostate): > 100 µM
- TGI (SK-MEL-5 melanoma): > 100 µM
- TGI (SR leukemia): > 100 µM
- TGI (HCT-15 colon): > 100 µM
- TGI (SF-268 CNS): > 100 µM
- TGI (IGROV1 ovarian): > 100 µM
- TGI (HL-60(TB) leukemia): 67.2 µM
- TGI (MOLT-4 leukemia): > 100 µM
- TGI (A498 renal): 79.3 µM
- TGI (SNB-19 CNS): > 100 µM
- TGI (M14 melanoma): > 100 µM
- TGI (HT29 colon): > 100 µM
- TGI (SF-295 CNS): > 100 µM
- TGI (OVCAR-5 ovarian): > 100 µM
- TGI (NCI-H522 lung): > 100 µM
- TGI (SK-OV-3 ovarian): > 100 µM
- TGI (UACC-62 melanoma): > 100 µM
- TGI (ACHN renal): > 100 µM
- TGI (SN12C renal): > 100 µM
- TGI (CAKI-1 renal): > 100 µM
- TGI (MDA-MB-435): > 100 µM
- TGI (A549 NSCLC): > 100 µM
- TGI (NCI/ADR-RES ovarian): > 100 µM
- TGI (MDA-N): > 100 µM
- TGI (BT-549 breast): > 100 µM
- TGI (K-562 leukemia): > 100 µM
- TGI (EKVX NSCLC): > 100 µM
- TGI (HS 578T breast): > 100 µM
- TGI (CCRF-CEM leukemia): > 100 µM
- TGI (SW-620 colon): > 100 µM
- TGI (T-47D breast): > 100 µM
